From US20250206757A1 (GASHERBRUM BIO, INC., priority 2022, published 2025)

Target: GLP-1 Receptor (Homo sapiens, UniProt P43220)
Assay: GLP-1R agonist cAMP stimulation assay (HEK293/GLP1R/CRE-LUC cells, HTRF cAMP dynamic 2 kit)
Assay type: cell-based
Conditions: HEK293/CRE-Luc cell line stably expressing the GLP-1 Receptor; 30 min incubation at 37° C.
Outline: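 HEK293 cells stably expressing GLP-1R with CRE-Luc, 1000 cells/well in DPBS with 0.5 mM IBMX and 0.10% BSA, exposed to half-log compound dilutions for 30 min at 37 °C. cAMP measured by HTRF (665/615 nm) after 1 h at room temperature.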

GLP-1 Receptor, sequence (P43220 24-463): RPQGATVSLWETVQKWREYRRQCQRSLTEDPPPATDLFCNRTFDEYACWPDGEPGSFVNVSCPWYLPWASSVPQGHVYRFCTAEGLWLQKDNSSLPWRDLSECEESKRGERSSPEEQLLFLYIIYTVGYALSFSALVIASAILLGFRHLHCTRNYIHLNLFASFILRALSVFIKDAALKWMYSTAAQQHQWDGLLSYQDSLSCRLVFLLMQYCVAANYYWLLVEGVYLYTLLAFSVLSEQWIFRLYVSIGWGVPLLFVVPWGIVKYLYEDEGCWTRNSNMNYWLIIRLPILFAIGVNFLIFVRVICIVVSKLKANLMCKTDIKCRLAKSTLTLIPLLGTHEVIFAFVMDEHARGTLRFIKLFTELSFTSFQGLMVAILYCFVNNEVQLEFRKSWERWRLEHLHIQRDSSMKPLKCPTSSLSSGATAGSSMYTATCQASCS

`Cc1cc2c(nc1OCc1c(F)cc(Cl)cc1F)CN(Cc1nc3cc(-c4nnc(C(F)F)[nH]4)ncc3n1C[C@@H]1CCO1)CC2` [Compound 56, 2-[(4-chloro-2,6-difluorophenyl)methoxy]-7-({6-[5-(difluoromethyl)-4H-1,2,4-triazol-3-yl]-3-{[(2S)-oxetan-2-yl]methyl}-3H-imidazo[4,5-c]pyridin-2-yl}methyl)-3-methyl-5,6,7,8-tetrahydro-1,7-naphthyridine] and `N#Cc1cc2c(nc1OCc1c(F)cc(Cl)cc1F)CN(Cc1nc3cc(-c4nnc(C(F)F)[nH]4)ncc3n1C[C@@H]1CCO1)CC2` [Compound 69, 2-[(4-chloro-2,6-difluorophenyl)methoxy]-7-({6-[5-(difluoromethyl)-4H-1,2,4-triazol-3-yl]-3-{[(2S)-oxetan-2-yl]methyl}-3H-imidazo[4,5-c]pyridin-2-yl}methyl)-5,6,7,8-tetrahydro-1,7-naphthyridine-3-carbonitrile] cannot be ordered by EC50: under 1 nM for the first, under 1 nM for the second.

First: O=c1[nH]c(-c2cc3c(nc(CN4CCc5cc(C(F)(F)F)c(OCc6ccc(Cl)cc6F)nc5C4)n3C[C@@H]3CCO3)s2)no1 [Compound 58, 3-[2-({2-[(4-chloro-2-fluorophenyl)methoxy]-3-(trifluoromethyl)-5,6,7,8-tetrahydro-1,7-naphthyridin-7-yl}methyl)-1-{[(2S)-oxetan-2-yl]methyl}-1H-thieno[2,3-d]imidazol-5-yl]-4,5-dihydro-1,2,4-oxadiazol-5-one]
Second: Cc1nnc(-c2cc3c(nc(CN4CCc5cc(C(F)(F)F)c(OCc6ccc(Cl)cc6F)nc5C4)n3C[C@@H]3CCO3)s2)[nH]1 [Compound 60, 2-[(4-chloro-2-fluorophenyl)methoxy]-7-{[5-(5-methyl-4H-1,2,4-triazol-3-yl)-1-{[(2S)-oxetan-2-yl]methyl}-1H-thieno[2,3-d]imidazol-2-yl]methyl}-3-(trifluoromethyl)-5,6,7,8-tetrahydro-1,7-naphthyridine]
The EC50 of the first is lower: under 1 nM for the first, 1 to 300 nM for the second. The first is the more potent here.

`Fc1cc(Cl)ccc1COc1nc2c(cc1C(F)(F)F)CCN(Cc1nc3sc(-c4nnc(C(F)(F)F)[nH]4)cc3n1C[C@@H]1CCO1)C2` [Compound 59, 2-[(4-chloro-2-fluorophenyl)methoxy]-7-[(1-{[(2S)-oxetan-2-yl]methyl}-5-[5-(trifluoromethyl)-4H-1,2,4-triazol-3-yl]-1H-thieno[2,3-d]imidazol-2-yl)methyl]-3-(trifluoromethyl)-5,6,7,8-tetrahydro-1,7-naphthyridine] and `CC(F)(F)c1nnc(-c2cc3nc(CN4CCc5cc(C(F)(F)F)c(OCc6ccc(Cl)cc6F)nc5C4)n(C[C@@H]4CCO4)c3cn2)[nH]1` [Compound 66, 2-[(4-chloro-2-fluorophenyl)methoxy]-7-({6-[5-(1,1-difluoroethyl)-4H-1,2,4-triazol-3-yl]-3-{[(2S)-oxetan-2-yl]methyl}-3H-imidazo[4,5-c]pyridin-2-yl}methyl)-3-(trifluoromethyl)-5,6,7,8-tetrahydro-1,7-naphthyridine] cannot be ordered by EC50: under 1 nM for the first, under 1 nM for the second.

`Cc1nnc(-c2cc3nc(CN4CCc5cc(C(F)(F)F)c(OCc6ccc(Cl)cc6)nc5C4)n(C[C@@H]4CCO4)c3cn2)[nH]1` [Compound 61, 2-[(4-chlorophenyl)methoxy]-7-{[6-(5-methyl-4H-1,2,4-triazol-3-yl)-3-{1[(2S)-oxetan-2-yl]methyl}-3H-imidazo[4,5-c]pyridin-2-yl]methyl}-3-(trifluoromethyl)-5,6,7,8-tetrahydro-1,7-naphthyridine] and `Cc1nnc(-c2cc3nc(CN4CCc5cc(C(F)(F)F)c(OCc6ccc(Cl)cc6F)nc5C4)n(C[C@@H]4CCO4)c3cn2)[nH]1` [Compound 62, 2-[(4-chloro-2-fluorophenyl)methoxy]-7-{[6-(5-methyl-4H-1,2,4-triazol-3-yl)-3-{[(2S)-oxetan-2-yl]methyl}-3H-imidazo[4,5-c]pyridin-2-yl]methyl}-3-(trifluoromethyl)-5,6,7,8-tetrahydro-1,7-naphthyridine] cannot be ordered by EC50: under 1 nM for the first, under 1 nM for the second.

`Cc1nnc(-c2cc3nc(CN4CCc5cc(C(F)(F)F)c(OCc6c(F)cc(Cl)cc6F)nc5C4)n(C[C@@H]4CCO4)c3cn2)[nH]1` [Compound 63, 2-[(4-chloro-2,6-difluorophenyl)methoxy]-7-{[6-(5-methyl-4H-1,2,4-triazol-3-yl)-3-{[(2S)-oxetan-2-yl]methyl}-3H-imidazo[4,5-c]pyridin-2-yl]methyl}-3-(trifluoromethyl)-5,6,7,8-tetrahydro-1,7-naphthyridine] and `N#Cc1cc2c(nc1OCc1c(F)cc(Cl)cc1F)CN(Cc1nc3cc(-c4nnc(C(F)(F)F)[nH]4)ncc3n1C[C@@H]1CCO1)CC2` [Compound 71, 2-[(4-chloro-2,6-difluorophenyl)methoxy]-7-[(3-{[(2S)-oxetan-2-yl]methyl}-6-[5-(trifluoromethyl)-4H-1,2,4-triazol-3-yl]-3H-imidazo[4,5-c]pyridin-2-yl)methyl]-5,6,7,8-tetrahydro-1,7-naphthyridine-3-carbonitrile] cannot be ordered by EC50: under 1 nM for the first, under 1 nM for the second.

First: FC(F)(F)c1cc2c(nc1OCc1ccc(Cl)cc1)CN(Cc1nc3cc(-c4nnc[nH]4)ncc3n1C[C@@H]1CCO1)CC2 [Compound 64, 2-[(4-chlorophenyl)methoxy]-7-[(3-{[(2S)-oxetan-2-yl]methyl}-6-(4H-1,2,4-triazol-3-yl)-3H-imidazo[4,5-c]pyridin-2-yl)methyl]-3-(trifluoromethyl)-5,6,7,8-tetrahydro-1,7-naphthyridine]
Second: FC(F)c1ccc(COc2nc3c(cc2C(F)(F)F)CCN(Cc2nc4cc(-c5nnc(C(F)(F)F)[nH]5)ncc4n2C[C@@H]2CCO2)C3)cc1 [Compound 73, 2-{[4-(difluoromethyl)phenyl]methoxy}-7-[(3-{[(2S)-oxetan-2-yl]methyl}-6-[5-(trifluoromethyl)-4H-1,2,4-triazol-3-yl]-3H-imidazo[4,5-c]pyridin-2-yl)methyl]-3-(trifluoromethyl)-5,6,7,8-tetrahydro-1,7-naphthyridine]
The EC50 of the first is higher: 1 to 300 nM for the first, under 1 nM for the second.

`Fc1cc(Cl)ccc1COc1nc2c(cc1C(F)(F)F)CCN(Cc1nc3cc(-c4nnc(C5CC5)[nH]4)ncc3n1C[C@@H]1CCO1)C2` [Compound 65, 2-[(4-chloro-2-fluorophenyl)methoxy]-7-{[6-(5-cyclopropyl-4H-1,2,4-triazol-3-yl)-3-{1[(2S)-oxetan-2-yl]methyl}-3H-imidazo[4,5-c]pyridin-2-yl]methyl}-3-(trifluoromethyl)-5,6,7,8-tetrahydro-1,7-naphthyridine] and `Fc1cc(Cl)ccc1COc1nc2c(cc1C(F)F)CCN(Cc1nc3cc(-c4nnc(C(F)(F)F)[nH]4)ncc3n1C[C@@H]1CCO1)C2` [Compound 72, 2-[(4-chloro-2-fluorophenyl)methoxy]-3-(difluoromethyl)-7-[(3-{[(2S)-oxetan-2-yl]methyl}-6-[5-(trifluoromethyl)-4H-1,2,4-triazol-3-yl]-3H-imidazo[4,5-c]pyridin-2-yl)methyl]-5,6,7,8-tetrahydro-1,7-naphthyridine] cannot be ordered by EC50: under 1 nM for the first, under 1 nM for the second.

First: Cc1nnc(-c2cnc3c(c2)nc(CN2CCc4cc(C(F)(F)F)c(OCc5ccc(Cl)cc5F)nc4C2)n3C[C@@H]2CCO2)[nH]1 [Compound 67, 2-[(4-chloro-2-fluorophenyl)methoxy]-7-{[6-(5-methyl-4H-1,2,4-triazol-3-yl)-3-{[(2S)-oxetan-2-yl]methyl}-3H-imidazo[4,5-b]pyridin-2-yl]methyl}-3-(trifluoromethyl)-5,6,7,8-tetrahydro-1,7-naphthyridine]
Second: Cc1nnc(-c2ccc3c(nc(CN4CCc5cc(C(F)(F)F)c(OCc6ccc(Cl)cc6)nc5C4)n3C[C@@H]3CCO3)c2F)[nH]1 [Compound 68, 2-[(4-chlorophenyl)methoxy]-7-{[4-fluoro-5-(5-methyl-4H-1,2,4-triazol-3-yl)-1-{[(2S)-oxetan-2-yl]methyl}-1H-1,3-benzodiazol-2-yl]methyl}-3-(trifluoromethyl)-5,6,7,8-tetrahydro-1,7-naphthyridine]
The EC50 of the first is higher: 1 to 300 nM for the first, under 1 nM for the second.

`N#Cc1cc2c(nc1OCc1c(F)cc(Cl)cc1F)CN(Cc1nc3cc(-c4noc(=O)[nH]4)ccc3n1C[C@@H]1CCO1)CC2` [Compound 70, 2-[(4-chloro-2,6-difluorophenyl)methoxy]-7-[(1-{[(2S)-oxetan-2-yl]methyl}-5-(5-oxo-4,5-dihydro-1,2,4-oxadiazol-3-yl)-1H-1,3-benzodiazol-2-yl)methyl]-5,6,7,8-tetrahydro-1,7-naphthyridine-3-carbonitrile] and `N#Cc1ccc(COc2nc3c(cc2C(F)(F)F)CCN(Cc2nc4cc(-c5nnc(C(F)(F)F)[nH]5)ncc4n2C[C@@H]2CCO2)C3)c(F)c1` [Compound 75, 3-fluoro-4-[({7-[(3-{[(2S)-oxetan-2-yl]methyl}-6-[5-(trifluoromethyl)-4H-1,2,4-triazol-3-yl]-3H-imidazo[4,5-c]pyridin-2-yl)methyl]-3-(trifluoromethyl)-5,6,7,8-tetrahydro-1,7-naphthyridin-2-yl}oxy)methyl]benzonitrile] cannot be ordered by EC50: under 1 nM for the first, under 1 nM for the second.

Compared with `FC(F)(F)c1nnc(-c2cc3nc(CN4CCc5cc(C(F)(F)F)c(OCc6ccc(Cl)cn6)nc5C4)n(C[C@@H]4CCO4)c3cn2)[nH]1` [Compound 74, 2-[(5-chloropyridin-2-yl)methoxy]-7-[(3-{[(2S)-oxetan-2-yl]methyl}-6-[5-(trifluoromethyl)-4H-1,2,4-triazol-3-yl]-3H-imidazo[4,5-c]pyridin-2-yl)methyl]-3-(trifluoromethyl)-5,6,7,8-tetrahydro-1,7-naphthyridine], `Fc1cc(Cl)ccc1COc1nc2c(cc1C(F)(F)F)CCN(Cc1nc3cc(-c4nnc(C(F)(F)F)[nH]4)ncc3n1C[C@H]1CCOC1)C2` [Compound 76, 2-[(4-chloro-2-fluorophenyl)methoxy]-7-[(3-{[(3R)-oxolan-3-yl]methyl}-6-[5-(trifluoromethyl)-4H-1,2,4-triazol-3-yl]-3H-imidazo[4,5-c]pyridin-2-yl)methyl]-3-(trifluoromethyl)-5,6,7,8-tetrahydro-1,7-naphthyridine] is higher in EC50: under 1 nM for the first, 1 to 300 nM for the second.
